# Laboratory results taken from patent US9969758B2, “Antimicrobial compounds” (BIOMERIEUX, priority 2014, dated 2018).
# Columns and labels:
# Test in all cases: MIC by agar dilution
# E. cloacae (27) = format: cell-based, Enterobacter cloacae
# Procedure, shortened: (§1)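 Agar dilution on peptone-free medium with 2% lysed horse blood, NAD and hemin (25.0 μg/mL each), compounds 0.0031 to 8.0 μg/mL; inoculum 10 000 CFU/spot, 22 h at 37° C. Fosfomycin tested in IsoSensitest medium plus 25.0 μg/mL glucose-6-phosphate; at least two replicates.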
# E. aerogenes (n=1) = format: cell-based, Enterobacter aerogenes
# Description: (§2) Bacterial isolates. […] These included Citrobacter freundii (n=5), other species of Citrobacter (n=4), Enterobacter aerogenes (n=1), Enterobacter cloacae (n=27), Escherichia coli (n=53), Klebsiella oxytoca (n=5), Klebsiella pneumoniae (n=87), Kluyvera spp (n=1), Proteus mirabilis (n=8), Providencia rettgeri (n=2), Salmonella spp (n=3), and Serratia marcescens (n=1). Among these 197 isolates, there were 128 (65%) carbapenemase producers, including; 87 with NDM-1, 9 with IMP, 11 with KPC, 14 with OXA-48 and 7 with VIM. The majority of the carbapenemase producers jointly produced broad-spectrum β-lactamases (BSBL) or cephalosporinases (AmpC β-lactamases), but the latter are not documented for the sake of clarity.
# (§3) Determining the minimum inhibitory concentrations (MIC). All the MICs were determined using an agar dilution method. This required use of a medium without a defined antagonist (peptone-free), prepared as described previously with the inclusion of 2% horse blood lysed with saponin, 25.0 μg/mL of NAD and 25.0 μg/mL of hemin [17]. […] The MICs of fosfomycin were determined by the same method, except that the IsoSensitest medium (Oxoid, Basingstoke, United Kingdom) was used, plus 25.0 μg/mL of glucose-6-phosphate (Sigma, Poole, United Kingdom) and an extended range of fosfomycin concentrations. […]
# K. pneumoniae (87) = format: cell-based, Klebsiella pneumoniae; conditions: Klebsiella pneumoniae
# Procedure, shortened: as §1
# All Enterococci (50) = format: cell-based; conditions: All Enterococci (50)
# Procedure, shortened: (§4)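 Compounds dissolved in sterile water are incorporated into supplemented peptone-free agar over 0.016 to 32 μg/mL for gram-positive bacteria. Each isolate is multispot-inoculated at 10 000 CFU/spot and read after 22 hours at 37° C.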
# [1] = test system: methicillin-sensitive Staphylococcus aureus; format: cell-based; conditions: MSSA (13)
# Procedure, shortened: as §4
# [2] = test system: glycopeptide-resistant enterococci; format: cell-based
# Procedure, shortened: as §4
# [3] = test system: methicillin-resistant Staphylococcus aureus; format: cell-based
# Procedure, shortened: as §4
# Enterobacteriaceae (197) = format: cell-based; conditions: Enterobacteriaceae (197)
# Procedure, shortened: as §1
# [4] = test system: carbapenemase-producing Enterobacteriaceae; format: cell-based
# Procedure, shortened: as §1
# [5] = test system: Enterobacteriaceae with a broad-spectrum β-lactamase; format: cell-based
# Procedure, shortened: as §1
# All S. aureus (50) = format: cell-based, Staphylococcus aureus; conditions: All S. aureus (50)
# Procedure, shortened: as §4
# S. marcescens (n=1) = format: cell-based, Serratia marcescens
# Description: as §2, §3
# K. oxytoca = format: cell-based, Klebsiella oxytoca; conditions: Klebsiella oxytoca; one of the five isolates of K. oxytoca
# Description: as §2, §3
# E. faecium (34) = format: cell-based, Enterococcus faecium
# Procedure, shortened: as §4
# E. coli (53) = format: cell-based, Escherichia coli
# Procedure, shortened: as §1
# Kluyvera sp. (n=1) = format: cell-based, Kluyvera spp
# Description: as §2, §3
# AmpC (22) = format: cell-based, Enterobacteriaceae
# Procedure, shortened: as §1
# Salmonella isolates = format: cell-based, Salmonella spp; conditions: three Salmonella isolates; read-out: MICs
# Description: as §2, §3
# [6] = read-out: Modal MIC (most frequent MIC)
# [7] = Staphylococcus aureus, read-out: MIC50
# [8] = Staphylococcus aureus, read-out: MIC90
# [9] = Staphylococcus aureus, read-out: Modal MIC (most frequent MIC)
structure (smiles),measurement,setting,value
"C[C@H](N)C(=O)N[C@@H](C)P(=O)(O)O [Alafosfalin, L-alanyl-L-1-aminoethylphosphonic acid]",activity relative to fosfomycin,E. cloacae (27); E. cloacae,~32 times
same,MIC Range,E. cloacae (27); E. cloacae (27),0.125 to 4 µg/mL
same,concentration by which all the isolates were inhibited,E. cloacae (27); E. cloacae isolates (n=27),4 µg/mL
same,MIC50,"E. cloacae (27); Enterobacter cloacae, E. cloacae (27), read-out: MIC50",1 µg/mL
same,MIC90,"E. cloacae (27); Enterobacter cloacae, E. cloacae (27), read-out: MIC90",1 µg/mL
same,MIC,"E. cloacae (27); Enterobacter cloacae, E. cloacae (27), read-out: Modal MIC (most frequent MIC)",1 µg/mL
same,concentration to which all the isolates were sensitive,E. aerogenes (n=1),≤ 4 µg/mL
same,MIC50,"K. pneumoniae (87); K. pneumoniae (87), read-out: MIC50",2 µg/mL
same,MIC90,"K. pneumoniae (87); K. pneumoniae (87), read-out: MIC90",> 8 µg/mL
same,MIC,"K. pneumoniae (87); K. pneumoniae (87), read-out: Modal MIC (most frequent MIC)",2 µg/mL
same,percent of isolates inhibited at 8 µg/mL,"K. pneumoniae (87); K. pneumoniae isolates, at 8 μg/mL, read-out: isolates inhibited",87%
same,MIC50,All Enterococci (50); read-out: MIC50,16 µg/mL
same,MIC90,All Enterococci (50); read-out: MIC90,> 32 µg/mL
same,MIC,All Enterococci (50); [6],8 µg/mL
same,MIC Range,[1],0.25 to 16 µg/mL
same,MIC50,[1]; [7],4 µg/mL
same,MIC90,[1]; [8],8 µg/mL
same,MIC,[1]; [9],4 µg/mL
same,MIC50,[2],16 µg/mL
same,MIC90,[2],> 32 µg/mL
same,MIC,[2]; [6],16 µg/mL
same,MIC90,[3]; MRSA (37),8 µg/mL
same,MIC Range,[3]; MRSA (37),0.125 to 16 µg/mL
same,MIC50,"[3]; Staphylococcus aureus, MRSA",4 µg/mL
same,MIC90,"[3]; Staphylococcus aureus, MRSA",8 µg/mL
same,MIC,"[3]; Staphylococcus aureus, MRSA, read-out: Modal MIC (most frequent MIC)",4 µg/mL
same,MIC50,Enterobacteriaceae (197); read-out: MIC50,2 µg/mL
same,MIC90,Enterobacteriaceae (197); read-out: MIC90,> 8 µg/mL
same,MIC,Enterobacteriaceae (197); [6],2 µg/mL
same,MIC50,[4],1 µg/mL
same,MIC90,[4],4 µg/mL
same,MIC,[4]; [6],2 µg/mL
same,MIC50,[5],2 µg/mL
same,MIC90,[5],> 8 µg/mL
same,MIC,[5]; [6],2 µg/mL
same,MIC Range,All S. aureus (50),0.125 to 16 µg/mL
same,MIC50,All S. aureus (50); [7],4 µg/mL
same,MIC90,All S. aureus (50); [8],8 µg/mL
same,MIC,All S. aureus (50); [9],4 µg/mL
same,concentration to which all the isolates were sensitive,S. marcescens (n=1),≤ 4 µg/mL
same,MIC,K. oxytoca,> 8 µg/mL
same,concentration by which all isolates were inhibited,E. faecium (34); 34 E. faecium isolates (including 31 vancomycin-resistant),32 µg/mL
same,MIC Range,E. faecium (34); E. faecium (34),4 to 32 µg/mL
same,MIC50,"E. faecium (34); Enterococcus faecium, E. faecium (34), read-out: MIC50",16 µg/mL
same,MIC90,"E. faecium (34); Enterococcus faecium, E. faecium (34), read-out: MIC90",16 µg/mL
same,MIC,"E. faecium (34); Enterococcus faecium, E. faecium (34), read-out: Modal MIC (most frequent MIC)",16 µg/mL
same,concentration by which growth of all the isolates was inhibited,E. coli (53); 53 isolates of E. coli,2 µg/mL
same,activity relative to that of fosfomycin,E. coli (53); E. coli,approximately four
same,MIC Range,E. coli (53); E. coli (53),≤0.031-2 ^ μg/mL
same,MIC50,"E. coli (53); Escherichia coli, E. coli (53), read-out: MIC50",0.125 µg/mL
same,MIC90,"E. coli (53); Escherichia coli, E. coli (53), read-out: MIC90",0.25 µg/mL
same,MIC,"E. coli (53); Escherichia coli, E. coli (53), read-out: Modal MIC (most frequent MIC)",0.063 µg/mL
same,concentration to which all the isolates were sensitive,Kluyvera sp. (n=1),≤ 4 µg/mL
same,MIC50,AmpC (22),4 µg/mL
same,MIC90,AmpC (22),> 8 µg/mL
same,MIC,AmpC (22); [6],> 8 µg/mL
same,MIC,Salmonella isolates,≥ 8 µg/mL
